The values that follow come from paper PMC3742645, “The Effect of Polyhydroxylated Alkaloids on Maltase-Glucoamylase” (PLoS ONE, 2013).

For this experiment, the target named is T1, ntMGAM (purchased as maltase-glucoamylase from rice, EC 3.2.1.20, Sigma G9259).
T1 construct: gene Os06g0675700; commercial native rice alpha-glucosidase; no human protein source or expression described
The experiment is described as follows: NMR transverse relaxation (CPMG) titration. It is filed as binding. To be noted: pH 6.8, 310 K, 10 mM sodium phosphate, 10% D2O, protein 18 μM; signal H-9; unit printed as M^-1 under a Kd heading. An excerpt:
NMR transverse relaxation (CPMG) titration on ntMGAM (purchased as maltase-glucoamylase from rice, EC 3.2.1.20, Sigma G9259)

On to `C[C@H]1O[C@H](O[C@H]2[C@H](O)[C@@H](O)[C@@H](O[C@H]3[C@H](O)[C@@H](O)C(O)O[C@@H]3CO)O[C@@H]2CO)[C@H](O)[C@@H](O)[C@@H]1N[C@H]1C=C(CO)[C@@H](O)[C@H](O)[C@H]1O` (stereo partly shown) [acarbose], for which the “K d(M^-1)” value is given as “(5.4±0.1)×10^−5 M^−1”.
